Values quoted from earlier work as cited in publication PMC8261488, “Contraceptive progestins with androgenic properties stimulate breast epithelial cell proliferation” (EMBO Molecular Medicine, 2021).

System: women
Conditions: women taking androgenic progestins; ref Rossouw et al, 2002; cited from earlier work

CC(=O)O[C@]1(C(C)=O)CC[C@H]2[C@@H]3C[C@H](C)C4=CC(=O)CC[C@]4(C)[C@H]3CC[C@@]21C [MPA]
breast cancer risk: elevated breast cancer risk
